Experimental data reported in patent US20130316990A1, “USE OF VITAMIN D COMPOUNDS” (DSM IP ASSETS B.V., priority 2003, published 2013).
Marks after values point to notes of the source that are not given here.

Key:
weaner piglets = assay: Bone strength (Newton at the breaking point) in weaner piglets fed supplemented diet, Example 2; assay type: in vivo; conditions: for Strength - femur: mean ± SD of 8 determinations
Procedure: Weaner piglets of an initial body weight of 8.4±1.2 kg were fed a diet based on maize, barley and soybean meal ad libitum for 33 days. Groups of 31 animals each were fed as follows:
A: basal diet+1,000 IU/kg vitamin D3
B: basal diet+2,000 IU/kg vitamin D3
C: basal diet +40 μg/kg 25-hydroxy vitamin D3 (Hy.D® 1.25% Beadlet, Roche Vitamins AG, Basel, Switzerland)
D: basal diet+1,000 IU/kg vitamin D3+20 μg/kg 25-hydroxy vitamin D3 (Hy. D® 1.25% Beadlet, Roche Vitamins AG, Basel, Switzerland).
(§1) The effects of the addition of 25-hydroxy vitamin D3 and vitamin D3 to the diet were determined by measuring the strength (Newton at the breaking point) of the bones of the animals.

growing-fattening pigs = assay: Bone strength (Newton at the breaking point) in growing-fattening pigs fed supplemented diet, Example 1; assay type: in vivo; conditions: for Strength - metacarpals and metatarsals, relative to group A (100) / Strength - metacarpals, relative to group A (100) / Strength - metatarsals, relative to group A (100): unmedicated basal diet = 100; for Strength - metacarpals / Strength - metatarsals: mean ± SD of 8 determinations; for Strength - metacarpals and metatarsals: mean ± SD of 16 determinations
Procedure: Growing-fattening pigs of an initial body weight of 64.8±5.03 kg were fed a diet based on maize, barley and soybean meal ad libitum for 34 days. Groups of 16 animals each were fed as follows:
A: basal diet (unmedicated),
B: basal diet+1,200 IU/kg vitamin D3
C: basal diet+30 μg/kg 25-hydroxy vitamin D3 (Hy.D® 1.25% Beadlet, Roche Vitamins AG, Basel, Switzerland)
D: basal diet+600 IU/kg vitamin D3+15 μg/kg 25-hydroxy vitamin D3 (Hy.D® 1.25% Beadlet, Roche Vitamins AG, Basel, Switzerland).
as §1

[1] = group C: 30 μg/kg 25-hydroxy vitamin D3, 34 days
[2] = group C: basal diet+30 μg/kg 25-hydroxy vitamin D3, 34 days
[3] = group B: 1,200 IU/kg vitamin D3, 34 days
[4] = group B: basal diet+1,200 IU/kg vitamin D3, 34 days

## C=C1CC[C@H](O)C/C1=C/C=C1\CCC[C@]2(C)[C@@H]([C@H](C)CCCC(C)(C)O)CC[C@@H]12 [25-hydroxy vitamin D3]
Weaner piglets; group C: 40 μg/kg 25-hydroxy vitamin D3, 33 days, 1,000 IU/kg vitamin D3 group = 100
  Strength - femur, relative to group A (100): (100)
Weaner piglets; group C: basal diet+40 μg/kg 25-hydroxy vitamin D3 (Hy.D 1.25% Beadlet), 33 days
  Strength - femur: 803 ± 82^a Newton
growing-fattening pigs; Example 1, addition to diet, 34 days
  strength of the bones of the growing-finishing pig (in words): clearly improved
growing-fattening pigs; [1]
  Strength - metacarpals and metatarsals, relative to group A (100): (112)
  Strength - metacarpals, relative to group A (100): (123)
  Strength - metatarsals, relative to group A (100): (103)
growing-fattening pigs; group C: basal diet+30 μg/kg 25-hydroxy vitamin D3 (Hy.D 1.25% Beadlet), 34 days
  Strength - metacarpals: 520 ± 72^df Newton
growing-fattening pigs; [2]
  Strength - metatarsals: 545 ± 105 Newton
  Strength - metacarpals and metatarsals: 533 ± 88^ac Newton

## C=C1CC[C@H](O)C/C1=C/C=C1\CCC[C@]2(C)[C@@H]([C@H](C)CCCC(C)C)CC[C@@H]12 [vitamin D3]
Weaner piglets; group A: 1,000 IU/kg vitamin D3, 33 days, reference group = 100
  Strength - femur, relative to group A (100): (100)
Weaner piglets; group B: 2,000 IU/kg vitamin D3, 33 days, 1,000 IU/kg vitamin D3 group = 100
  Strength - femur, relative to group A (100): (109)
Weaner piglets; group B: basal diet+2,000 IU/kg vitamin D3, 33 days
  Strength - femur: 873 ± 123^ab Newton
growing-fattening pigs; [3]
  Strength - metacarpals and metatarsals, relative to group A (100): (107)
  Strength - metacarpals, relative to group A (100): (109)
  Strength - metatarsals, relative to group A (100): (105)
growing-fattening pigs; [4]
  Strength - metacarpals: 463 ± 48^ce Newton
  Strength - metatarsals: 553 ± 169 Newton
  Strength - metacarpals and metatarsals: 508 ± 113^ac Newton
